How the values were obtained:
C57BL/6 male mice = assay: Protection against a lethal dose of TNF-α (TNF-α induced shock); assay type: in vivo; conditions: for Animals surviving 48 hours after TNF-α administration: TNF-α 10 μg i.v., 20 mg/kg/day i.p. three injections, total animals 9, 6, 6
Protocol: A model of TNF-α induced shock in C57BL/6 male mice was performed as follows. Animals from the control group received an Intravenous administration of a lethal dose of TNF-α (10 μg) in the tail. Animals from the test group received three intraperitoneous injections of a pteridine derivative (20 mg/kg/day) respectively 48 hours, 24 hours and immediately before an intravenous injection of TNF-α (10 μg).

[1] = system: melanoma (B16BL/6) in C57BL6 (B6) mice; assay: Reduction of tumor growth while inhibiting TNF-α toxicity, melanoma tumor model; assay type: in vivo
Protocol: A tumor model of melanoma (B16BL/6) in C57BL6 (B6) mice was performed as follows. On day 1, a group of 18 B6 mice were injected with 1.5×10^6 B16BL/6 melanosarcoma cells. The group was further divided into the following subgroups 3 days after the tumor cells injection: • a first control sub-group of 6 mice received vehicle (physiological solution) 3 times a week starting on day 3; • a second control subgroup of 5 mice received TNF-α (15 μg) on day 5 and, for surviving animals, TNF-α was again administered 3 times a week for 2 weeks; • a test sub-group of 7 mice intraperitoneously received the pteridine derivative of example 24 at a dose of 20 mg/kg on each of days 3, 4 and 5; the latter third injection on day 5 occurred 2 hours before a first TNF-α intravenous injection (15 μg). Then the test compound (20 mg/kg/day) and TNF-α (15 μg/day) were administered each subcutaneously 3 times a week for 2 weeks.

C3H mice = assay: Protection against lethal toxic shock (LPS injection); assay type: in vivo
human IL-1β = assay: IL-1β assay: suppression of IL-1β production by LPS-stimulated PBMC (sandwich ELISA); assay type: cell-based; conditions: LPS 1 μg/ml, 72 hours at 37° C.
Protocol: (§1) Peripheral blood mononuclear cells (herein referred as PBMC), in response to stimulation by lipopolysaccharide (LPS), a gram-negative bacterial endotoxin, produce various […], in particular human TNF-α and IL-1β. The inhibition of the activation of PBMC can be measured by the level of suppression of the production of TNF-α or IL-1β by PBMC in response to stimulation by LPS.
(§2) Such inhibition measurement was performed as follows: PBMC were isolated from heparinized peripheral blood (Buffy coat) by density gradient centrifugation. LPS is then added to the PMBC suspension in complete medium (10^6 cells/ml) at a final concentration of 1 μg/ml. The pteridine derivative to be tested was added at different dilution levels, and the cells were incubated at 37° C. for 72 hours. The supernatants were collected, and TNF-α or IL-1β concentrations were measured with respectively an anti-TNF antibody or an anti-IL-1β antibody in a sandwich ELISA (Duo Set ELISA human TNFα, commercially available from R&D Systems, United Kingdom). The colorimetric reading of the ELISA was measured by a Multiskan RC plate reader (commercially available from ThermoLabsystems, Finland) at 450 nm (reference wavelength: 690 nm). Data analysis was performed with Ascent software 2.6. (also from ThermoLabsystems, Finland): a standard curve (recombinant human TNFα) was drawn and the amount (pg/ml) of each sample on the standard curve was determined.
(§3) The % inhibition of human TNF-α production or human IL-1β was calculated using the formula: % inhibition=[…] wherein: min.: pg/ml in culture medium without test compound, and
(§4) max.: pg/ml in culture medium+LPS without test compound.

human TNF-α = assay: TNF-α assay: suppression of TNF-α production by LPS-stimulated PBMC (sandwich ELISA); assay type: cell-based; conditions: LPS 1 μg/ml, 72 hours at 37° C.
Protocol: as §1, §2, §3, §4

[2] = group of 16 C3H mice, 100 μg LPS i.p., 20 mg/kg/day i.p. for 2 days

SMILES | IC50 (human TNF-α) | further results
COc1ccc(-c2cnc3nc(N)nc(N4CCOCC4)c3n2)cc1OC [Example 24, 2-amino-4-morpholino-6-(3,4-dimethoxyphenyl)pteridine] | – | Animals surviving 48 hours after TNF-α administration (C57BL/6 male mice): 7; body temperature (C57BL/6 male mice; followed for 48 hours after TNF-α 10 μg i.v., 20 mg/kg/day i.p. 48 h, 24 h and immediately before, control 28.2° C.): 30.1 °C; average tumor size (largest diameter multiplied by smallest diameter) ([1]; after two weeks treatment together with TNF-α, first control group 439 mm^2): 144 mm^2; animals of the test sub-group survived ([1]; out of 7 tumor bearing mice, 20 mg/kg plus TNF-α 15 μg, second control group all died): 5; animals permanently survived the challenge of a LPS lethal dose (C3H mice; [2]): 14; animals showing a significantly prolonged survival (C3H mice; [2]): 2; prolonged survival (C3H mice; the 2 animals that did not survive permanently, controls die within 1-3 days): 5 days; IC50 (human IL-1β; Homo sapiens): 5.5 µM
CC(C)Oc1nc(N)nc2ncc(Cl)nc12 [Example 65, 2-amino-6-chloro-4-isopropoxypteridine] | 9.1 µM | –
CCOc1nc(N)nc2ncc(-c3ccccc3OC)nc12 [Example 67, 2-amino-6-(o-methoxyphenyl)-4-ethoxy-pteridine] | 10 µM | –
CCOc1nc(N)nc2ncc(-c3cccc(OC)c3)nc12 [Example 68, 2-amino-6-(m-methoxyphenyl)-4-ethoxy-pteridine] | 10 µM | –
CCOc1nc(N)nc2ncc(-c3ccc(F)c(C)c3)nc12 [Example 80, 2-amino-6-(3-methyl-4-fluorophenyl)-4-ethoxy-pteridine] | 6.8 µM | –
CCOc1nc(N)nc2ncc(-c3ccc(OC)c(OC)c3)nc12 [Example 83, 2-amino-6-(3,4-dimethoxyphenyl)-4-ethoxy-pteridine] | 6.6 µM | –
Cc1ccc(-c2cnc3nc(N)nc(OC(C)C)c3n2)cc1C [Example 85, 2-amino-6-(3,4-dimethylphenyl)-4-isopropoxypteridine] | – | IC50 (human IL-1β; Homo sapiens): > 40 µM
CC(C)Oc1nc(N)nc2ncc(-c3ccc(F)c(Cl)c3)nc12 [Example 87, 2-amino-6-(3-chloro-4-fluorophenyl)-4-isopropoxypteridine] | 7.5 µM | –
CCOc1ccc(-c2cnc3nc(N)nc(OC(C)C)c3n2)cc1 [Example 92, 2-amino-6-(p-ethoxyphenyl)-4-isopropoxypteridine] | 10 µM | –
CC(C)Oc1nc(N)nc2ncc(-c3ccsc3)nc12 [Example 94, 2-amino-6-(3-thienyl)-4-isopropoxypteridine] | 7.6 µM | –
CC(=O)c1ccc(-c2cnc3nc(N)nc(OC(C)C)c3n2)cc1 [Example 97, 2-amino-6-(p-acetylphenyl)-4-isopropoxypteridine] | 9.1 µM | –
COc1ccc(-c2cnc3nc(N)nc(OC(C)C)c3n2)cc1OC [Example 98, 2-amino-6-(3,4-dimethoxyphenyl)-4-isopropoxypteridine] | 3.5 µM | Animals surviving 48 hours after TNF-α administration (C57BL/6 male mice): 3; IC50 (human IL-1β; Homo sapiens): > 40 µM
COc1ccc(-c2cnc3nc(N)nc(N4CC=CCC4)c3n2)cc1OC [Example 119, 2-amino-4-(1,2,3,6-tetrahydropyridinyl)-6-(3,4-dimethoxyphenyl)pteridine] | – | Animals surviving 48 hours after TNF-α administration (C57BL/6 male mice): 3; IC50 (human IL-1β): 15 µM
COc1ccc(-c2cnc3nc(NCc4cccs4)nc(N)c3n2)cc1OC [Example 143, 2-(2-thienylmethylamino)-4-amino-6-(3,4-dimethoxyphenyl)pteridine] | 10 µM | –
Nc1nc(N2CCOCC2)c2nc(-c3ccc(NC(=O)COc4ccccc4)cc3)cnc2n1 [Example 160, 2-amino-4-morpholino-6-(4-phenoxyacetylaminophenyl)pteridine] | 4.9 µM | –
Nc1nc(N2CCOCC2)c2nc(-c3cccc(NS(=O)(=O)c4ccccc4)c3)cnc2n1 [Example 172, 2-amino-4-morpholino-6-(3-benzensulfonylaminophenyl)pteridine] | 0.5 µM | –
Nc1nc(N2CCOCC2)c2nc(-c3cccc(NC(=O)c4ccncc4)c3)cnc2n1 [Example 174, 2-amino-4-morpholino-6-(3-isonicotinoylaminophenyl)pteridine] | 7.3 µM | –
Nc1nc(N2CCOCC2)c2nc(-c3cccc(NC(=O)C4CCCCC4)c3)cnc2n1 [Example 175, 2-amino-4-morpholino-6-(3-cyclohexanoylaminophenyl)pteridine] | 5 µM | –
Nc1nc(N2CCOCC2)c2nc(-c3cccc(NC(=O)COCc4ccccc4)c3)cnc2n1 [Example 179, 2-amino-4-morpholino-6-(3-benzyloxyacetylaminophenyl)pteridine] | 7.7 µM | –
CCS(=O)(=O)Nc1cccc(-c2cnc3nc(N)nc(N4CCOCC4)c3n2)c1 [Example 180, 2-amino-4-morpholino-6-(3-ethylsulfonylaminophenyl)pteridine] | 10 µM | –

More lines, main results first:

IC50 (human TNF-α) | SMILES | further results
8 µM | CC(C)Oc1nc(N)nc(N)c1N [Example 59, 2,5,6-triamino-4-isopropoxy-pyrimidine] | –
8.5 µM | CCOc1nc(N)nc2ncc(-c3cccs3)nc12 [Example 72, 2-amino-6-(2-thienyl)-4-ethoxy-pteridine] | –
8.1 µM | CCOc1nc(N)nc2ncc(-c3ccc(F)cc3)nc12 [Example 77, 2-amino-6-(p-fluorophenyl)-4-ethoxy-pteridine] | –
9.3 µM | COc1ccc(-c2cnc3nc(NCc4ccccc4)nc(N)c3n2)cc1OC [Example 145, 2-benzylamino-4-amino-6-(3,4-dimethoxyphenyl)pteridine] | –
4.4 µM | Nc1nc(N2CCOCC2)c2nc(-c3ccc(NC(=O)c4ccncc4)cc3)cnc2n1 [Example 166, 2-amino-4-morpholino-6-(4-isonicotinoylaminophenyl)pteridine] | –
4.3 µM | Nc1nc(N2CCOCC2)c2nc(-c3cccc(NC(=O)c4ccccc4)c3)cnc2n1 [Example 171, 2-amino-4-morpholino-6-(3-benzoylaminophenyl)pteridine] | –
10 µM | CCOc1ccc(-c2cnc3nc(N)nc(N4CCOCC4)c3n2)cc1 [Example 186, 2-amino-4-morpholino-6-(4-ethoxyphenyl)pteridine] | –
10 µM | CCCOc1ccc(-c2cnc3nc(N)nc(N4CCOCC4)c3n2)cc1 [Example 190, 2-amino-4-morpholino-6-(4-propoxy-phenyl)pteridine] | –
7.2 µM | COCCOc1ccc(-c2cnc3nc(N)nc(N4CCOCC4)c3n2)cc1 [Example 193, 2-amino-4-morpholino-6-(4-(2-methoxyethoxy)-phenyl)pteridine] | –

Source: US20070004721A1, “Pteridine derivatives for the treatment of septic shock and tnf-a-related diseases” (priority 2003, published 2007)
